Among the data in ChEMBL document CHEMBL1138999, “Synthesis and in vitro evaluation of novel derivatives of diphenylsulfide as serotonin transporter ligands” (Bioorg Med Chem Lett, 2006) are IC50 and Ki values, retold here.

Experiment [1] deals with T1, Sodium-dependent serotonin transporter (Homo sapiens, UniProt P31645). Briefly: Inhibitory activity against SERT.
Experiment [2] addresses Sodium-dependent dopamine transporter (Homo sapiens, UniProt Q01959). Briefly: Inhibitory activity against DAT.
Experiment [3] addresses Sodium-dependent noradrenaline transporter (Homo sapiens, UniProt P23975). Briefly: Inhibitory activity against NET.
Experiment [4] concerns the target T1, Sodium-dependent serotonin transporter. The experiment can be described thus: Displacement of [3H]paroxetine from SERT. In general terms: In a radioligand displacement assay an active substance lowers the binding of a labelled ligand.

Sequence of Sodium-dependent dopamine transporter (Q01959 whole entry): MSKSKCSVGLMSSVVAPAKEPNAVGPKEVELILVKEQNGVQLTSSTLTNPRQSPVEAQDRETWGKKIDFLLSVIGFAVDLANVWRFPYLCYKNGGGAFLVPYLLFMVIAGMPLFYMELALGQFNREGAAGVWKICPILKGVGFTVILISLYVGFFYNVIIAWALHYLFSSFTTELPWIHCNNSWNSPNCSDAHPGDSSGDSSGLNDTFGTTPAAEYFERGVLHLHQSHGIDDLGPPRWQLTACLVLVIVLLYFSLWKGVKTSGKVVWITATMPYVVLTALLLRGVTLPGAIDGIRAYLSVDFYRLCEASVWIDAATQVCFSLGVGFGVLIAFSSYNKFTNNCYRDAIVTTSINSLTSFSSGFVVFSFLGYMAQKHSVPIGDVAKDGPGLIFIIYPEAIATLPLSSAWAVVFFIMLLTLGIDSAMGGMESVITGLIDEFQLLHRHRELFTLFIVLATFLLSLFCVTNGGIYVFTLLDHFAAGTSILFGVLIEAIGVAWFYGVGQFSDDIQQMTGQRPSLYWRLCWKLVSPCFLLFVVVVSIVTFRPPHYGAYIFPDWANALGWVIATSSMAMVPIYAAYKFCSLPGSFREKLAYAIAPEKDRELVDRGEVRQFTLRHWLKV
T1 sequence (P31645 whole entry): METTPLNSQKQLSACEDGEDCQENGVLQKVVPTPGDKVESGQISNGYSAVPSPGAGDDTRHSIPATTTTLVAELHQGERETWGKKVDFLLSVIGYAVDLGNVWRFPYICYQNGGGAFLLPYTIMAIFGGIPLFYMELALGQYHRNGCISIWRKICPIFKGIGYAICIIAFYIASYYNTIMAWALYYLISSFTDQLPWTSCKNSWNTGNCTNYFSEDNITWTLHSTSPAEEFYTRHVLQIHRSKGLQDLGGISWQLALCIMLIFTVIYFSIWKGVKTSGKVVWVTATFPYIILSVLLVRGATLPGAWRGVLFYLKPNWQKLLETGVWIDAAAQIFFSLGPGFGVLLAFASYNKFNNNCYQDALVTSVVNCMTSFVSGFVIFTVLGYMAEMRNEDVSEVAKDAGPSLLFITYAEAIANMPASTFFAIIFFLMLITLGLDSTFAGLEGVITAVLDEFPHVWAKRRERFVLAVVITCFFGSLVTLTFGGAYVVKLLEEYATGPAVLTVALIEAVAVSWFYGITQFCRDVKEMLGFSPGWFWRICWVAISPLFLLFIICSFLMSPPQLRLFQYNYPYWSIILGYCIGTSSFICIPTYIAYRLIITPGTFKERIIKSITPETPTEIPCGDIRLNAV
Sequence of Sodium-dependent noradrenaline transporter (P23975 whole entry): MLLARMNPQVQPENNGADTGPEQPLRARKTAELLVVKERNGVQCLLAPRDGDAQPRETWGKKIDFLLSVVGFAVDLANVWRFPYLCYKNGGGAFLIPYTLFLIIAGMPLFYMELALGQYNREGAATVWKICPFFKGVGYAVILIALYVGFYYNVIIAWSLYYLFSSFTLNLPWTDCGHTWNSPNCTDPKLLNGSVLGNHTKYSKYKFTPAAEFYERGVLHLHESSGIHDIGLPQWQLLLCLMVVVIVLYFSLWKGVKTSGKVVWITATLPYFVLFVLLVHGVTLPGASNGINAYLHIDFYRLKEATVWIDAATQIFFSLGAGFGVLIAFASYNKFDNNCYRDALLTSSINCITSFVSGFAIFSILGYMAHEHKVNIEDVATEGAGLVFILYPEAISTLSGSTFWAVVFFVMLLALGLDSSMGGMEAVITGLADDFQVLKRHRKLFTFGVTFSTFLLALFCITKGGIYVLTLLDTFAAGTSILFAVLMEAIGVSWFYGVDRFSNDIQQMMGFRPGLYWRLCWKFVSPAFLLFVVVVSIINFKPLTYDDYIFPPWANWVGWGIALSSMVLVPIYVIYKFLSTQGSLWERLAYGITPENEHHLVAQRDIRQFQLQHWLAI

Usually IC50 stands for the concentration that inhibits the measured activity by half. Lower therefore signals greater potency. Take `Cc1ccc(C(=O)c2ccccc2CN(C)C)c(N)c1`: the half-inhibitory concentration (IC50) in experiment [1], in experiment [2] and in experiment [3] was greater than 100 nM each time.
On to `Cc1ccc(N)c(-c2ccccc2CN(C)C)c1`, for which the IC50 in experiment [1], in experiment [2] and in experiment [3] was greater than 100 nM throughout.
In general, Ki refers to a measure of affinity in units of concentration, obtained from inhibition or displacement. In experiment [4], `Cc1ccc([S+]([O-])c2ccccc2CN(C)C)c(N)c1` (centres undefined) yielded a Ki of 4.15 nM. Moreover, the IC50 in experiment [2] and in experiment [3] was greater than 100 nM in each case.
Take `Cc1ccc(Oc2ccccc2CN(C)C)c(N)c1`: the affinity in experiment [4], expressed as Ki, was 0.53 nM. The concentration for half-maximal inhibition (IC50) in experiment [2] and in experiment [3] was greater than 100 nM each time.
In the case of `Cc1ccc(C(O)c2ccccc2CN(C)C)c(N)c1` (centres undefined), the half-maximal inhibitory concentration (IC50) in experiment [1], in experiment [2] and in experiment [3] was greater than 100 nM in each case.
As to `CCN(c1ccc(C)cc1N)c1ccccc1CN(C)C`, the IC50 in experiment [1], in experiment [2] and in experiment [3] was greater than 100 nM throughout.
Take `Cc1ccc(N(c2ccccc2)c2ccccc2CN(C)C)c(N)c1`: the half-maximal inhibitory concentration (IC50) in experiment [1], in experiment [2] and in experiment [3] was greater than 100 nM throughout.
`COC(c1ccc(C)cc1N)c1ccccc1CN(C)C` (centres undefined): the IC50 in experiment [1], in experiment [2] and in experiment [3] was greater than 100 nM in each case.
Compound `Cc1ccc(Sc2ccccc2CN(C)C)c(N)c1` had a Ki in experiment [4] of 1.65 nM. In addition, the 50% inhibitory concentration (IC50) in experiment [2] and in experiment [3] was greater than 100 nM throughout.
Regarding `Cc1ccc(N(C)c2ccccc2CN(C)C)c(N)c1`, the IC50 in experiment [1], in experiment [2] and in experiment [3] was greater than 100 nM each time.
For `Cc1ccc(N(Cc2ccccc2)c2ccccc2CN(C)C)c(N)c1`, the IC50 in experiment [1], in experiment [2] and in experiment [3] was greater than 100 nM throughout.
For the compound `Cc1ccc(S(=O)(=O)c2ccccc2CN(C)C)c(N)c1`, the IC50 in experiment [1], in experiment [2] and in experiment [3] was greater than 100 nM in each case.
Compound `Cc1ccc(Nc2ccccc2CN(C)C)c(N)c1` came in with a Ki in experiment [4] of 10.3 nM. Moreover, the IC50 in experiment [2] and in experiment [3] was greater than 100 nM each time.
